Test results reported in ChEMBL document CHEMBL4020791, “Synthesis and anti-proliferative activity of a small library of 7-substituted 5H-pyrrole [1,2-a][3,1]benzoxazin-5-one derivatives” (Bioorg Med Chem Lett, 2017).
The source made the active and inactive calls. No cut-off for these calls is given here.

Legend:
MCF7 [1] = assay: Cytotoxicity against human MCF7 cells assessed as reduction in cell viability after 72 hrs by MTT assay; assay type: functional, cell-based; settings: MCF7, 72 h
SK-BR-3 [2] = assay: Cytotoxicity against human SKBR3 cells assessed as reduction in cell viability after 72 hrs by MTT assay; assay type: functional, cell-based; settings: SK-BR-3, 72 h
MCF-10A = assay: Cytotoxicity against human MCF10A after 72 hrs by MTT assay; assay type: cell-based
MDA-MB-231 [3] = assay: cells; settings: Homo sapiens, MDA-MB-231, 72 h
Description: Cytotoxicity against human MDA-MB-231 cells assessed as reduction in cell viability after 72 hrs by MTT assay

MCF7 [4] = assay: Antiproliferative activity against human MCF7 cells at 50 uM after 72 hrs by MTT assay; assay type: functional, cell-based
MDA-MB-231 [5] = assay: Antiproliferative activity against human MDA-MB-231 cells at 50 uM after 72 hrs by MTT assay; assay type: functional, cell-based
SK-BR-3 [6] = assay: Antiproliferative activity against human SKBR3 cells at 50 uM after 72 hrs by MTT assay; assay type: functional, cell-based
MCF7 [7] = assay: Increase in p21waf1/cip1 protein expression in human MCF7 cells at 1 to 10 uM after 24 hrs by immunoblot method; assay type: functional, cell-based
MCF7 [8] = assay: Cell cycle arrest in human MCF7 cells assessed as accumulation at S phase after 24 hrs by propidium iodide-staining based FACS analysis; assay type: functional
MCF7 [9] = assay: Cell cycle arrest in human MCF7 cells assessed as accumulation at S phase at 5 uM after 24 hrs by propidium iodide-staining based FACS analysis (reference value: 22.6%); assay type: functional
MCF7 [10] = assay: Induction of apoptosis in human MCF7 cells assessed as increase in cleaved PARP-1 expression at 1 to 10 uM after 24 hrs by immunoblot method; assay type: functional, cell-based
MCF7 [11] = assay: Increase in p53 expression in human MCF7 cells at 1 to 10 uM after 24 hrs by immunoblot method; assay type: functional, cell-based
MCF7 [12] = assay: Change in cyclin D1 levels in human MCF7 cells at 1 to 10 uM after 24 hrs by Western blot analysis; assay type: functional, cell-based
MCF7 [13] = assay: Cell cycle arrest in human MCF7 cells assessed as accumulation at G0/G1 phase at 5 uM after 24 hrs by propidium iodide-staining based FACS analysis (reference value: 71.1%); assay type: functional
MCF7 [14] = assay: Cell cycle arrest in human MCF7 cells assessed as accumulation at G2/M phase at 5 uM after 24 hrs by propidium iodide-staining based FACS analysis (reference value: 6.3%); assay type: functional
MCF7 [15] = assay: Cell cycle arrest in human MCF7 cells assessed as accumulation at S phase at 10 uM after 24 hrs by propidium iodide-staining based FACS analysis (reference value: 22.6%); assay type: functional
MCF7 [16] = assay: Cell cycle arrest in human MCF7 cells assessed as accumulation at G0/G1 phase at 10 uM after 24 hrs by propidium iodide-staining based FACS analysis (reference value: 71.1%); assay type: functional
MCF7 [17] = assay: Cell cycle arrest in human MCF7 cells assessed as accumulation at G2/M phase at 10 uM after 24 hrs by propidium iodide-staining based FACS analysis (reference value: 6.3%); assay type: functional

| SMILES | IC50 (MDA-MB-231 [3]) [µM] | IC50 (MCF7 [1]) [µM] | IC50 (SK-BR-3 [2]) [µM] | IC50 (MCF-10A) [µM] | Activity (MCF7 [4]) | Activity (MDA-MB-231 [5]) | Activity (SK-BR-3 [6]) | also measured |
| --- | --- | --- | --- | --- | --- | --- | --- | --- |
| O=c1oc2cccn2c2ccc(-c3cccnc3O)cc12 | 78.9 | 60.9 | 72 | 154 | – | – | – | – |
| O=c1oc2cccn2c2ccc(-c3ccc(C(F)(F)F)nc3)cc12 | 73 | 43.1 | 46.8 | 155 | – | – | – | – |
| O=c1oc2cccn2c2ccc(-c3ccccc3)cc12 | 93.5 | 66.5 | 61 | 180 | – | – | – | – |
| O=c1oc2cccn2c2cc3ccccc3cc12 | – | – | – | – | Active | Active | Active | – |
| O=c1oc2cccn2c2ccc(Br)cc12 | 217 | 123 | 126 | 262 | Active | Active | Active | – |
| O=c1oc2cccn2c2ccccc12 | – | – | – | – | Active | Active | Active | – |
| O=c1oc2cccn2c2ncccc12 | – | – | – | – | Active | Active | Active | – |

Further compounds by falling IC50 (MDA-MB-231 [3]), results first:

| IC50 (MDA-MB-231 [3]) [µM] | SMILES | IC50 (MCF7 [1]) [µM] | IC50 (SK-BR-3 [2]) [µM] | IC50 (MCF-10A) [µM] | Activity (MCF7 [4]) | Activity (MDA-MB-231 [5]) | Activity (SK-BR-3 [6]) | also measured |
| --- | --- | --- | --- | --- | --- | --- | --- | --- |
| 65 | COC(=O)c1ccc(-c2ccc3c(c2)c(=O)oc2cccn23)cc1 | 48.7 | 59.3 | 162 | – | – | – | – |
| 31 | O=c1oc2cccn2c2ccc(-c3ccc(O)cc3)cc12 | 18.5 | 27 | 79.8 | – | – | – | – |
| 10 | O=c1oc2cccn2c2ccc(-c3ccc(-c4ccccc4)cc3)cc12 | 9.03 | 9.2 | > 250 | – | – | – | Activity (MCF7 [7]): Active; Activity (MCF7 [8]): Dose-dependent effect; Activity (MCF7 [9]): 15.6%; Activity (MCF7 [10]): Active; Activity (MCF7 [11]): Active; Activity (MCF7 [12]): Active; Activity (MCF7 [13]): 76.6%; Activity (MCF7 [14]): 7.8%; Activity (MCF7 [15]): 18.8%; Activity (MCF7 [16]): 72.8%; Activity (MCF7 [17]): 8.4% |
| 10 | COc1cccc2c1C(=O)c1c(O)c3c(c(O)c1C2=O)C[C@@](O)(C(=O)CO)C[C@@H]3O[C@H]1C[C@H](N)[C@H](O)[C@H](C)O1 [DOXORUBICIN] | – | 8.48 | 12.5 | – | – | – | – |
